Reference: US11976062B2, “Benzisoxazole compound” (OSAKA UNIVERSITY, priority 2018, dated 2024)

Experiments:
dermal fibroblasts = experiment: Fibrosis inhibition evaluation 1: cell morphology observation of dermal fibroblasts; type: cell-based, mice; details: dermal fibroblasts cultured 48 hours with TGFβ1
TRPC6 channel = molecular target: T1, TRPC6 channel (Homo sapiens, UniProt Q9Y210); experiment: Calcium assay using HEK293 cells transiently expressing TRPC6 channel, carbachol activation (Fura-2); type: cell-based
T1 construct: expressed in transfected cells; host or cells: HEK293
T1 sequence (Q9Y210 1-931): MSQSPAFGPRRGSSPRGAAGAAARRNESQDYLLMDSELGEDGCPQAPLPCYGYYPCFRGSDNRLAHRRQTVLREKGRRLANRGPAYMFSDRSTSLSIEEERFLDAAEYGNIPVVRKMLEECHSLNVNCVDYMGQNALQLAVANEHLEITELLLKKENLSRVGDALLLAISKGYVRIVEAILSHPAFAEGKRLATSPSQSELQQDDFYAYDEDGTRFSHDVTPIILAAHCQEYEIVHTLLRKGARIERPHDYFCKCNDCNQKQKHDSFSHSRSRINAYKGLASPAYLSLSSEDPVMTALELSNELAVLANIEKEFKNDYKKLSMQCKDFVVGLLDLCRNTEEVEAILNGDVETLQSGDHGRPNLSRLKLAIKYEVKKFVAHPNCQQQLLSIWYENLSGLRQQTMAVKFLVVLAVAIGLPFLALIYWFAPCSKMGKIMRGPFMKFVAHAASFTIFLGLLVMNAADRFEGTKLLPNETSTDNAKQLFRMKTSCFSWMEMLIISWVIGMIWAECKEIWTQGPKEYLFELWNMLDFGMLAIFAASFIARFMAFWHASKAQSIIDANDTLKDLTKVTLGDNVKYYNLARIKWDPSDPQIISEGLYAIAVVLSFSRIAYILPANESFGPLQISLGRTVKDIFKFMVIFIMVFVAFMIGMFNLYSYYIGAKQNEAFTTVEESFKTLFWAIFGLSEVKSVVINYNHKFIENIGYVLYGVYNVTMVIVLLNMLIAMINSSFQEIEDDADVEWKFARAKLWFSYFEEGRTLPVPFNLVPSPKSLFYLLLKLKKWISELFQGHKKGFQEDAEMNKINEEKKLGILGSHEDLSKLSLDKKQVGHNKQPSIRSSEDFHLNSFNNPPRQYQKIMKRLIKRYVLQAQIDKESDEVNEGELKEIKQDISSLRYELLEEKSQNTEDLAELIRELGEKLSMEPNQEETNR
Protocol: A TRPC6 gene was introduced into HEK293 cells (cells derived from human fetal kidney) by lipofection, and the TRPC6 channel was expressed on the cell membrane. Specifically, the plasmid DNA of TRPC6 (pCI-neo; Promega Corporation) was introduced into HEK293 cells using a lipofection reagent, and then cultured at 37° C. for 24 to 48 hours to express the TRPC6 channel on the cell membrane. In the same manner, HEK293 cells into which the TRPC3 gene was introduced were cultured, and the TRPC3 channel was expressed on the cell membrane.
The cultured cells were peeled off with trypsin and seeded on a cover glass again, followed by culturing the cells at 37° C. for 3 hours again. A Fura-2 AM calcium indicator was added to the medium, and the cells were cultured at 37° C. for 30 minutes to allow the cells to incorporate the indicator. For the extracellular solution, a Ca^2+-containing solution and a Ca^2+-free solution were prepared. • Ca^2+-containing solution: 2 mM CaCl2, 132 mM NaCl, 4 mM KCl, 1 mM MgCl2, 5 mM glucose, 5 mM HEPES (pH 7.4) • Ca^2+-free solution: 132 mM NaCl, 4 mM KCl, 1 mM MgCl2, 5 mM glucose, 5 mM HEPES (pH 7.4)
After the cells were added to the Ca^2+-containing solution, the following operation was performed while the fluorescence intensity (510 nm) of Fura-2 was measured at room temperature with an ARGUS CA-20 (Hamamatsu Photonics K.K.) over time. • 0 minutes: TRPC3-expressing cells or TRPC6-expressing cells are placed in a measurement chamber that contains the Ca^2+-containing solution. • After 30 seconds: The Ca^2+-containing solution is replaced with the Ca^2+-free solution. • After 1 minute: A predetermined amount of a test compound is added to the Ca^2+-free solution. • After 3 minutes: Carbachol (100 μM) is added to the Ca^2+-free solution. • After 7 minutes: The Ca^2+-free solution is replaced with the Ca^2+-containing solution that contains a test compound and carbachol […]. • After 15 minutes: Measurement is ended.
Compound 011 was used as the test compound, and the amount of the test compound added was 0.01, 0.1, 0.5, 1.0, 5.0, 10, or 50 μM. For the control, 0.1% DMSO was used in place of the test compound. Carbachol (cch) is a TRPC-channel-activating reagent. Applying carbachol to cells opens the TRPC channel and allows a large amount of Ca^2+ in the extracellular solution to flow into the cells. Fura-2 AM has high cell membrane permeability due to the presence of an AM group (acetoxymethyl group), and is thus easily incorporated into the cells. The AM group is hydrolyzed in the cells to become Fura-2. Thus, Fura-2 can form a chelate with Ca^2+ and is also unlikely to leak out of the cells due to the loss of the AM group.
In the same manner as in Test Example 1, the maximum calcium ion concentration was measured after 7 minutes from the start of measurement (i.e., after replacement with the Ca^2+-containing solution) by using TRPC6-expressing cells prepared in the same manner as in Test Example 1, except that 10 μM of Pyr 4 and 10 μM of compound 011, 031, 041, or 191 (test compound) were used. The average value of calcium ion concentrations up to 30 seconds after the start of measurement (the initial value of calcium ion concentration) was subtracted from the maximum calcium ion concentration, and the calculated value was determined to be the amount of increase in calcium ions. FIG. 3 illustrates the results.
The calcium ion concentration was measured in the same manner as in Test Example 2, except that 10 μM of compound 011, 361, 362(E), 362(Z), 371, 372(Z), 381, or 401 (test compound) was used, and Pyr 4 was not used, thereby determining the amount of increase in calcium ions. Table 2 illustrates the amount of increase in calcium ions for each test compound relative to the amount of increase in calcium ions in the control (DMSO) taken as 100%.

Compound: O=C(O)c1cnc(N2CCN(c3noc4cccc(C(F)(F)F)c34)CC2)c(Cl)c1 [Compound 011, 5-chloro-6-(4-(4-(trifluoromethyl)benzo[d]isoxazol-3-yl)piperazin-1-yl) nicotinic acid]
- cell morphology / cell damage by microscopic observation (dermal fibroblasts): no change in cell morphology and no cell damage
- suppression of TRPC6 channel activation (decrease in calcium ion influx, FIG. 3) (TRPC6 channel; 10 μM test compound, carbachol): activation of the TRPC6 channel was suppressed
- amount of increase in calcium ions relative to control (DMSO) taken as 100% (TRPC6 channel; 10 μM test compound, carbachol, TRPC6-expressing cells): 21%
- Ca2+ concentration in the cells reached after addition of carbachol (TRPC6 channel; TRPC6, FIG. 1, from about 100 nM, control (DMSO) about 280 nM): about 140 nM
- IC50 (TRPC6 channel; TRPC6-expressing HEK293 cells, carbachol 100 μM, from concentration-response curves, read-out: IC50 for inhibition of the TRPC6 channel): 4.6 µM
